We go through five compounds from patent US20040162345A1, “Compounds with NEP/MP-inhibitory activity and uses thereof” (Solvay Pharmaceuticals GmbH, priority 2001, published 2004).

Entries after “also recorded” stand apart in the source; their conditions may differ. Like-named read-outs stand apart in the source and are kept apart here.

The target of assay [1] is Neutral endopeptidase (E.C. 3.4.24.11) (Sus scrofa, UniProt A0A4X1SQE6). The assay is described as follows: NEP enzyme inhibition assay (methionin-enkephalin substrate, HPLC). It is filed as biochemical, pig. On the procedure: Neutral endopeptidase (E.C. 3.4.24.11) was prepared from pig kidney cortex according to the method of Gee et al. (Biochem J 1985 May 15;228(1):119-26) and purified as reported by Relton et al. (Biochem J 1983 Dec. 1;215(3):519-23). For the enzyme inhibition assay 10 ng of the purified enzyme, 20 μM substrate (methionin-enkephalin) and various inhibitor concentrations were used. The assay buffer was 50 mM Tris-(hydroxymethyl)-aminomethan/HCl pH 7.4, the total assay volume was 100 μl. After a preincubation period of 5 min of enzyme and inhibitor, the substrate was added and subsequently a second incubation phase for enzyme induced substrate hydrolysis at 37° C. for 30 min was initiated. The enzymatic reaction was stopped by heating at 95° C. for 5 min. After centrifugation the supernatant was subjected to HPLC. The products of enzymatic substrate hydrolysis were separated from the native substrate by HPLC technique and the inhibitor potency calculated by comparing the peak areas of the products with the peak area of native substrate for both, the samples with and without inhibitor (control). Blanks without enzyme, controls without inhibitor, samples with inhibitor solvent instead of the inhibitor and samples with a standard inhibitor were added to each assay run.
Chain of Neutral endopeptidase (E.C. 3.4.24.11) (A0A4X1SQE6 entry or part of it): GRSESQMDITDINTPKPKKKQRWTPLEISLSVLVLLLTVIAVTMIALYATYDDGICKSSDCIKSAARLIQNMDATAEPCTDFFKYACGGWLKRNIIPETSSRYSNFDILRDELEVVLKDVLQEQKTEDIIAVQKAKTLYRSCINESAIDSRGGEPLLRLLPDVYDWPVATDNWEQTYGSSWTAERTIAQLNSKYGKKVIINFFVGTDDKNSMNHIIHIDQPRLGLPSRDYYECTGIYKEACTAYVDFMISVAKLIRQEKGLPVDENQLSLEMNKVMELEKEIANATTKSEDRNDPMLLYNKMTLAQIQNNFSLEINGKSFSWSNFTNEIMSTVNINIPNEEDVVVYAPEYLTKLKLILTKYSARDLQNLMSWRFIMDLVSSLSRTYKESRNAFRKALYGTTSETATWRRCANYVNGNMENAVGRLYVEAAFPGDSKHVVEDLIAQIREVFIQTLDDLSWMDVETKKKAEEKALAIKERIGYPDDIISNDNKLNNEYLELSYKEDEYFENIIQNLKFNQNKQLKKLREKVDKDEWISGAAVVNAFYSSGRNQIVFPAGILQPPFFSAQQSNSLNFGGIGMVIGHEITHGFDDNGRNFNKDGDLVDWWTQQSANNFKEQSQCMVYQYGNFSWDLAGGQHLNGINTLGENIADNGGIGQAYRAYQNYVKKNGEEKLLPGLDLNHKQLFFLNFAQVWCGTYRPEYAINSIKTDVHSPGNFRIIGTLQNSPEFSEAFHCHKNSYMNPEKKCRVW
(§1) Furthermore, the potency of metalloprotease inhibitor compounds and reference compounds to suppress the conversion of big-ET to ET-1 was examined as described in this example 7, using a labeled fluorescent big-ET-1 analog. The procedures applied in the enzyme assays are described above in the examples 4 with regard to IGS5, in example 5 with regard to NEP, and in example 6 with regard to ECE.

Assay [2] concerns the target T1, His6-tagged IGS5 ectodomain (Homo sapiens, UniProt Q495T6).
T1 construct: Enzyme: IGS-5 (sol hu)(his)6; or: His6-tagged IGS5 ectodomain;; made in house; host or cells: Sf9 insect cells, recombinant baculovirus IGBV73, purified from culture supernatant
T1 sequence (Q495T6 49-779 limits assumed): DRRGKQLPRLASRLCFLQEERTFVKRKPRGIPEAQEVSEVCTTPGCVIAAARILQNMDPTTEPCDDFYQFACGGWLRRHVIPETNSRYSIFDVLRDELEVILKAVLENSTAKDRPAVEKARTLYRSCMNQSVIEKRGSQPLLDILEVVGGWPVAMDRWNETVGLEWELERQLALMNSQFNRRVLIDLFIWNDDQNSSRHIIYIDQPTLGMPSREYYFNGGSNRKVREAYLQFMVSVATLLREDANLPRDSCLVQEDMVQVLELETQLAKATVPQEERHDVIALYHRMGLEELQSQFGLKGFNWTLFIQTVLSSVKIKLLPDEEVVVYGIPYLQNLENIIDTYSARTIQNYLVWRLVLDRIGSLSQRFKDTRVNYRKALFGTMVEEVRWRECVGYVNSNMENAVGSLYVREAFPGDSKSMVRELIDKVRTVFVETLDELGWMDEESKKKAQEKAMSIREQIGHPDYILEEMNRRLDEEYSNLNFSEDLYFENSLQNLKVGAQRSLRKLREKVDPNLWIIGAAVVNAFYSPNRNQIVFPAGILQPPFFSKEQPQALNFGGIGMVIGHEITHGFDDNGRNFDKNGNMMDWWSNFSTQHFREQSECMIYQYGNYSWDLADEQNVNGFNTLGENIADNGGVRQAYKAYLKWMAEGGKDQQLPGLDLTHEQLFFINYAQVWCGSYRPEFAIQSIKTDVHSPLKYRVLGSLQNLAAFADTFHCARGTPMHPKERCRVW
The assay is described as follows: IGS5 enzyme inhibition assay (fluorescence-quenched big-ET-1 analog, HPLC). Conditions: for IC50: conversion of labeled fluorescent big-ET-1 analog. It is filed as biochemical. On the procedure:
The enzymatic activity of IGS5 polypeptides of the invention was tested with regard to the metabolism of biologically active peptides. In particular it was tested whether these IGS5 polypeptides may act on a variety of vasoactive peptides known in the state of the art e.g. such like atrial natriuretic peptide (ANP), bradykinin, big-endothelin (big-ET-1), endothelin (ET-1), substance P and angiotensin-1. In the context of the present invention in particular it was tested whether the IGS5 ectodomain, which is a novel human metalloprotease, hydrolyzes said vasoactive peptides. For comparison the assay was also performed for a known member of the metalloprotease family which was described earlier as soluble secreted endopeptidase (SEP) by Emoto et al. (J. Biol. Chem., Vol. 274 (1999): pp. 32469-32477). Furthermore, it was tested whether the activity of IGS5 to convert a big-ET-1 analog (the so-called 17 aa big-ET-1) may be inhibited by reference compounds that are used to determine the inhibition properties with regard to enzymes having ECE and/or NEP-characteristics.
Enzyme: IGS-5 (sol hu)(his)6; or: His6-tagged IGS5 ectodomain;
stock solution: 53 μg/ml in 20 mM HEPES pH 7.2, 5% glycerol, 0.005% Tween20, 100 mM NaCl, purity >99%; storage at 4° C.
working solution: stock solution diluted with assay buffer to 10 μg/ml.
Substrate: Mca-Asp-Ile-Ala-Trp-Phe-Dpa-[…]COOH;
Fluorescence-quenched big-ET-1 analog;
Assay buffer: 100 mM Tris pH 7.0, 250 mM NaCl.
All test compounds were dissolved in DMSO at 10 mM and were further diluted with assay buffer.
A quantity of 70 μl of the assay buffer, of 10 μl enzyme working solution and of 10 μl test compound solution were mixed in an Eppendorf vial and preincubated at 37° C. for 15 minutes. Then, 10 μl substrate stock solution was added and the reaction mixture was incubated at 37° C. for 60 minutes to allow for enzymatic hydrolysis. Subsequently the enzymatic reaction was terminated by heating at 95° C. for 5 minutes. After centrifugation (Heraeus Biofuge B, 3 min) the supernatant was subjected to HPLC analysis.
In order to separate the remaining substrate from the cleavage products reversed phase HPLC technique was used with a CC 125/4 Nucleosil 300/5 C18 RP column and a CC 8/4 Nucleosil 100/5 C18 precolumn (commercially available from Macherey-Nagel, Düren, Germany). Thus, 60 μl of the reaction samples obtained in Example 7b were injected into the HPLC, and the column was eluted at a flow rate of 1 ml/min by applying the following gradient and solutions: […]
The increasing fluorescence signal of the HPLC-peak of the peptide with the unquenched Mca-fluorophor after hydrolysis was taken as the basis for any calculation.
This signal was compared for the samples with and without inhibitor and % inhibition was calculated on basis of the respective peak areas.
% inhib=100*(1−Ainhib/Acontrol)
All samples were run in duplicate and mean values were used.
as §1

In assay [3] the target is T2, Recombinant human COOH-terminal His6-tagged endothelin converting enzyme-1 (Homo sapiens, UniProt P42892).
T2 construct: His6 (C); purchased Innogenetics, Ghent, Belgium; host or cells: Sf9 cells
T2 sequence (P42892 1-770): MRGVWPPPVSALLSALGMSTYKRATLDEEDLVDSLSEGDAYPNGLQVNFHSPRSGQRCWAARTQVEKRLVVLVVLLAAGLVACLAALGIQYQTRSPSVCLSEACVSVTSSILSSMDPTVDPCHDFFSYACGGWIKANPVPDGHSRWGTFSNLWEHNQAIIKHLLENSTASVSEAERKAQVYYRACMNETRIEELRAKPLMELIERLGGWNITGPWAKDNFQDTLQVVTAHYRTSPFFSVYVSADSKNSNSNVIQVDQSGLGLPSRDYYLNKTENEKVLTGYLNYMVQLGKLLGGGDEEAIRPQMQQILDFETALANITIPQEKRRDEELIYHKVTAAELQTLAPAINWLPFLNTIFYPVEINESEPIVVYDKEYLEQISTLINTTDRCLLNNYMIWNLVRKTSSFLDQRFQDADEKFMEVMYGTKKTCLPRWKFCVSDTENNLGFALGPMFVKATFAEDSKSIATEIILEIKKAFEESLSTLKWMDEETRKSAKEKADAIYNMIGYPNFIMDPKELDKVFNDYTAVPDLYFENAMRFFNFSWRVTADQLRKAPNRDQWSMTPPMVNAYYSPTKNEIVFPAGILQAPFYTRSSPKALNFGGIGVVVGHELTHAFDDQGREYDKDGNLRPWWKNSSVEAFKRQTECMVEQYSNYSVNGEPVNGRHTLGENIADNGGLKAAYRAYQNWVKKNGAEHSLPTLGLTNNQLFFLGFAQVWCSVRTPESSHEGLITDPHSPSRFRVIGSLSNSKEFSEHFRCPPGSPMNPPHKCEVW
Nature of the assay: ECE enzyme inhibition assay (17 amino acid truncated big endothelin-1, HPLC). It is filed as biochemical.
Method: The enzyme inhibition assay comprised enzyme (2.8 μg), 5 μg substrate (moderately modified 17 amino acid truncated big endothelin-1), inhibitor at various final concentrations and 100 mM Tris-buffer (Tris-hydroxymethl-aminomethan/HCl, pH 7.0+150 mM NaCl) in a final volume of 100 μl. Pre-incubation of enzyme with inhibitor for 15 min at 37° C. was performed before substrate addition and incubation (60 min at 37° C.) for enzymatic hydrolysis. The enzymatic reaction was stopped by heating at 95° C. for 5 min. After centrifugation the supernatant was subjected to HPLC for separation of enzymatic hydrolysis products from undegraded substrate. % inhibition was calculated on the basis of peak areas for products and uncleaved substrate for the inhibited reaction in comparison to the control (without inhibitor). Blanks without enzyme, controls without inhibitor, samples with inhibitor solvent instead of the inhibitor and samples with a standard inhibitor were added to each assay run.

The test system of the next assay is healthy volunteers. Nature of the assay: Double-blind placebo-controlled clinical study, big-ET-induced pressure response. It is filed as in vivo, human. Conditions: thirteen healthy volunteers. On the procedure:
(§2) To proof the concept of clinical efficacy and safety of compound Ia-2 in man, 6 clinical trials were conducted in healthy volunteers and 2 proof of concept trials were conducted in patients: One randomized, placebo-controlled double-blind trial in patients with hypertension (N=191) and one open, baseline controlled pilot trial in patients with congestive heart failure (N=29). […] In the Intent-to-treat patient population (ITT), office diastolic blood pressure versus placebo decreased by −6.9 mmHg (last value under treatment; p<0.001) and office systolic blood pressure versus placebo decreased by −9.2 mmHg (last value under treatment; p=0.003) at the highest dose investigated (200 mg bid).

For assay [4], the system named is patients with WHO grade I-II hypertension. The assay is described as follows: Randomized, placebo-controlled double-blind 4-week trial in patients with hypertension. It is filed as in vivo, human. Conditions: 200 mg bid, ITT, last value under treatment. Here is the method:
as §2

The test system of another assay is volunteers and patients. The assay is described as follows: Clinical trials, plasma ANP and cGMP following oral dosing. It is filed as in vivo, human. Here is the method: as §2
Assay [5] deals with patients with congestive heart failure. The assay is described as follows: Open, baseline controlled pilot trial in patients with congestive heart failure. It is filed as in vivo, human. Here is the method:
as §2

Setting [6] is: 20 μM methionin-enkephalin, read-out: NEP IC50.

On to `O=C(O)C(Cc1ccc2c(c1)oc1ccccc12)NCP(=O)(O)O` (stereo not shown) [CGS-35066], for which the results for the IC50 in assay [1] (setting [6]), in assay [2] and in assay [3] were 42 nM, 1300 nM and 5 nM, respectively. The “inhibition of IGS5 activity (in words)” value in assay [2] was “Inhibition of IGS5 could be observed at higher concentrations only”.
In assay [1], `CC(C)C[C@H](NP(=O)(O)O[C@@H]1O[C@@H](C)[C@H](O)[C@@H](O)[C@H]1O)C(=O)N[C@@H](Cc1c[nH]c2ccccc12)C(=O)O` [Phosphoramidon] displayed a half-inhibitory concentration (IC50) of 2 nM. For the same compound, in assay [2], the “inhibition of IGS5 activity (in words)” value is on record as “inhibits IGS5 with high potency” and it took 18 nM to reach half-maximal inhibition (IC50).
`O=C(O)CNC(=O)C(CS)Cc1ccccc1` (stereo not shown) [Thiorphan]: the IC50 in assay [1] was 2.4 nM; in assay [2] it was more than 1000 nM; in assay [3], more than 10000 nM. Also, in assay [2], the “inhibition of IGS5 activity (in words)” value is listed as “no inhibition of IGS5; also recorded: do not affect the activity of IGS5”.
Take `CCOC(=O)[C@H](CCc1ccccc1)CC1(C(=O)N[C@H]2CCc3ccccc3N(CC(=O)O)C2=O)CCCC1` [compound Ia-2, (3S,2′R)-3-{1-[2′-(ethoxycarbonyl)-4′-phenylbutyl]-cyclopentane-1-carbonylamino}-2,3,4,5-tetrahydro-2-oxo-1H-1-benzazepine-1-acetic acid]: the ANP levels entry in the assay with healthy volunteers is “clear dose related increase”. Also, in the assay with healthy volunteers, the ET-1 levels entry is “did not increase”. The big-ET levels entry in the assay with healthy volunteers (compared to placebo group) is on record as “increased dose dependently”. Moreover, in the assay with healthy volunteers (versus placebo), the big-ET-induced pressure response result is recorded as “dose-dependently inhibited”. Moreover, the IC50 in assay [2] was found to be 1.2 nM. In assay [4] (p<0.001), the “office diastolic blood pressure versus placebo” value was −6.9 mmHg. Also, the “office systolic blood pressure versus placebo” value in assay [4] (p=0.003) is recorded as −9.2 mmHg. The “plasma concentrations of ANP and its second messenger cGMP” value in the assay on volunteers and patients was “significantly increased and sustained”. Further, the “change of plasma big-ET from baseline” value in assay [5] (200 mg) is “+32.6%”; in assay [5] (400 mg), “+56%”. In addition, the “plasma levels of big-ET following administration” value in assay [5] (200 mg, baseline 4.9 fmol/ml) came out at 6.5 fmol/mL; in assay [5] (400 mg, baseline 2.3 fmol/ml), 3.5 fmol/mL.
As to `Cc1nn(-c2ccccc2)c(NC(=O)NS(=O)(=O)c2ccc(Cl)cc2)c1C#N.[Na]` [monosodium salt], the IC50 in assay [1] (setting [6]) is more than 1000 nM; in assay [2] it was more than 10000 nM.

The IC50 is the concentration that gives 50% inhibition.
